Measurements from paper PMC12090182, “Repurposing of the RIPK1-Selective Benzo[1,4]oxazepin-4-one Scaffold for the Development of a Type III LIMK1/2 Inhibitor” (ACS Chemical Biology, 2025).

Assays:
Experiment in all cases: biochemical
Format in all cases: binding
[1] = molecular target: 468 kinases including some pathogenic mutants (Homo sapiens, UniProt O15146); details: MUSK (Entrez MUSK), 100 nM; read-out: Percent Control
[2] = molecular target: 468 kinases including some pathogenic mutants (Homo sapiens, UniProt P08922); details: ROS1 (Entrez ROS1), 100 nM; read-out: Percent Control
[3] = molecular target: 468 kinases including some pathogenic mutants (Homo sapiens, UniProt P07949, V804M); details: read-out: Percent Control
[4] = molecular target: 468 kinases including some pathogenic mutants (Homo sapiens, UniProt Q99640); details: PKMYT1 (Entrez PKMYT1), 100 nM; read-out: Percent Control
[5] = molecular target: 468 kinases including some pathogenic mutants (Homo sapiens, UniProt Q8NEV4); details: MYO3A (Entrez MYO3A), 100 nM; read-out: Percent Control
[6] = molecular target: 468 kinases including some pathogenic mutants (Homo sapiens, UniProt Q6ZWH5); details: NEK10 (Entrez NEK10), 100 nM; read-out: Percent Control
[7] = molecular target: 468 kinases including some pathogenic mutants (Homo sapiens, UniProt Q13523); details: PRP4 (Entrez PRPF4B), 1000 nM; read-out: Percent Control
[8] = molecular target: 468 kinases including some pathogenic mutants (Homo sapiens, UniProt P10721, T670I/V559D); details: read-out: Percent Control
[9] = molecular target: 468 kinases including some pathogenic mutants (Homo sapiens, UniProt Q9UF33); details: EPHA6 (Entrez EPHA6), 100 nM; read-out: Percent Control
[10] = molecular target: 468 kinases including some pathogenic mutants (Homo sapiens, UniProt Q9UM73, L1196M); details: read-out: Percent Control
[11] = molecular target: 468 kinases including some pathogenic mutants (Homo sapiens, UniProt Q9H093); details: SNARK (Entrez NUAK2), 100 nM; read-out: Percent Control
[12] = molecular target: 468 kinases including some pathogenic mutants (Homo sapiens, UniProt Q6P2M8); details: CAMK1B (Entrez PNCK), 100 nM; read-out: Percent Control
[13] = molecular target: 468 kinases including some pathogenic mutants (Homo sapiens, UniProt P42336, E545K); details: read-out: Percent Control
[14] = molecular target: 468 kinases including some pathogenic mutants (Homo sapiens, UniProt Q8TD19); details: NEK9 (Entrez NEK9), 100 nM; read-out: Percent Control
[15] = molecular target: 468 kinases including some pathogenic mutants (Homo sapiens, UniProt Q96J92); details: WNK4 (Entrez WNK4), 1000 nM; read-out: Percent Control
[16] = molecular target: 468 kinases including some pathogenic mutants (Homo sapiens, UniProt Q06418); details: TYRO3 (Entrez TYRO3), 100 nM; read-out: Percent Control
[17] = molecular target: 468 kinases including some pathogenic mutants (Homo sapiens, UniProt Q8IW41); details: MAPKAPK5 (Entrez MAPKAPK5), 1000 nM; read-out: Percent Control
[18] = molecular target: 468 kinases including some pathogenic mutants (Homo sapiens, UniProt Q05655); details: PRKCD (Entrez PRKCD), 1000 nM; read-out: Percent Control
[19] = molecular target: 468 kinases including some pathogenic mutants (Homo sapiens, UniProt Q9UHD2); details: TBK1 (Entrez TBK1), 100 nM; read-out: Percent Control
[20] = molecular target: 468 kinases including some pathogenic mutants (Homo sapiens, UniProt P07948); details: LYN (Entrez LYN), 100 nM; read-out: Percent Control
[21] = molecular target: 468 kinases including some pathogenic mutants (Homo sapiens, UniProt P42336, E545A); details: read-out: Percent Control
[22] = molecular target: 468 kinases including some pathogenic mutants (Homo sapiens, UniProt P06241); details: FYN (Entrez FYN), 100 nM; read-out: Percent Control
[23] = molecular target: 468 kinases including some pathogenic mutants (Homo sapiens, UniProt P07949, M918T); details: read-out: Percent Control
[24] = molecular target: 468 kinases including some pathogenic mutants (Homo sapiens, UniProt Q13153); details: PAK1 (Entrez PAK1), 100 nM; read-out: Percent Control
[25] = molecular target: 468 kinases including some pathogenic mutants (Homo sapiens, UniProt Q7L7X3); details: TAOK1 (Entrez TAOK1), 1000 nM; read-out: Percent Control
[26] = molecular target: 468 kinases including some pathogenic mutants (Homo sapiens, UniProt Q07002); details: read-out: Percent Control
[27] = molecular target: 468 kinases including some pathogenic mutants (Homo sapiens, UniProt Q86UE8); details: TLK2 (Entrez TLK2), 1000 nM; read-out: Percent Control
[28] = molecular target: 468 kinases including some pathogenic mutants (Homo sapiens, UniProt P51957); details: NEK4 (Entrez NEK4), 1000 nM; read-out: Percent Control
[29] = molecular target: 468 kinases including some pathogenic mutants (Homo sapiens, UniProt P51956); details: NEK3 (Entrez NEK3), 100 nM; read-out: Percent Control
[30] = molecular target: 468 kinases including some pathogenic mutants (Homo sapiens, UniProt Q13163); details: MEK5 (Entrez MAP2K5), 100 nM; read-out: Percent Control

468 kinases including some pathogenic mutants (Homo sapiens, UniProt Q6P2M8), sequence (Q6P2M8 whole entry, stated change not applied): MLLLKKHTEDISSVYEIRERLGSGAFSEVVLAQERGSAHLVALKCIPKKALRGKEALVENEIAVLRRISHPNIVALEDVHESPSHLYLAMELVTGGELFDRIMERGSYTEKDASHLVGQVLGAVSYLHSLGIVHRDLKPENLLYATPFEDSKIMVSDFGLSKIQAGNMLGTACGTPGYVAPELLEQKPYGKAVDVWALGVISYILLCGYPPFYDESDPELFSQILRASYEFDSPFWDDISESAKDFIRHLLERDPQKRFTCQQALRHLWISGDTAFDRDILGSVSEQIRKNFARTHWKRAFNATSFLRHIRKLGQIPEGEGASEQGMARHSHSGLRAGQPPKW
468 kinases including some pathogenic mutants (Homo sapiens, UniProt P42336, E545A), sequence (P42336 whole entry E545A): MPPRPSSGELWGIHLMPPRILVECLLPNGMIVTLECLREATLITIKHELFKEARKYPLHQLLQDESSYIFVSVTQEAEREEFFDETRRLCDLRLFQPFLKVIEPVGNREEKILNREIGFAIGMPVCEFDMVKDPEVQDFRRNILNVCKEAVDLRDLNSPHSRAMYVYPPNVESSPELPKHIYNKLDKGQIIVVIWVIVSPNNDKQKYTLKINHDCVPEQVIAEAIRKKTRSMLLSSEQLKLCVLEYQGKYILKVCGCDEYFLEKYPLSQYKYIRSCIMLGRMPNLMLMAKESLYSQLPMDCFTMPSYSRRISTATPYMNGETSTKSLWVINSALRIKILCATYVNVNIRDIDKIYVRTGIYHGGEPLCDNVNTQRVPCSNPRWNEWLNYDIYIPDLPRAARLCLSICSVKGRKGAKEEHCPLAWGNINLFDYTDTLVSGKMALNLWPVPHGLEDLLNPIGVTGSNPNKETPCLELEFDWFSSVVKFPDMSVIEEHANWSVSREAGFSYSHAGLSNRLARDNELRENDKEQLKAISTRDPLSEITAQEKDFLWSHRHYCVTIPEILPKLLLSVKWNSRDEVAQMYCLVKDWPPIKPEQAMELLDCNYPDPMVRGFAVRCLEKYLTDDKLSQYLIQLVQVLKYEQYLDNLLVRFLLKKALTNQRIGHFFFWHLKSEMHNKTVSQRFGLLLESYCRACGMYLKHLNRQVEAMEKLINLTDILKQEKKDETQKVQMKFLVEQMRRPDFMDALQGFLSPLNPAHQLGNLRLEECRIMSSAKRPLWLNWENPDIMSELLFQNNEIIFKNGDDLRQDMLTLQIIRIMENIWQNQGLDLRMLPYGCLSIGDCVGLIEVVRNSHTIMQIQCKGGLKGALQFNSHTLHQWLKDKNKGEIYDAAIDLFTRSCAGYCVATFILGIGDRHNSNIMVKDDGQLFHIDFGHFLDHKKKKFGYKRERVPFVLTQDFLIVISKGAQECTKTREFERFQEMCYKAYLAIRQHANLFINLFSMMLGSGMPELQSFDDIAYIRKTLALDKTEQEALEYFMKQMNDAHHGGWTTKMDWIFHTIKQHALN
468 kinases including some pathogenic mutants (Homo sapiens, UniProt P06241), sequence (P06241 whole entry, stated change not applied): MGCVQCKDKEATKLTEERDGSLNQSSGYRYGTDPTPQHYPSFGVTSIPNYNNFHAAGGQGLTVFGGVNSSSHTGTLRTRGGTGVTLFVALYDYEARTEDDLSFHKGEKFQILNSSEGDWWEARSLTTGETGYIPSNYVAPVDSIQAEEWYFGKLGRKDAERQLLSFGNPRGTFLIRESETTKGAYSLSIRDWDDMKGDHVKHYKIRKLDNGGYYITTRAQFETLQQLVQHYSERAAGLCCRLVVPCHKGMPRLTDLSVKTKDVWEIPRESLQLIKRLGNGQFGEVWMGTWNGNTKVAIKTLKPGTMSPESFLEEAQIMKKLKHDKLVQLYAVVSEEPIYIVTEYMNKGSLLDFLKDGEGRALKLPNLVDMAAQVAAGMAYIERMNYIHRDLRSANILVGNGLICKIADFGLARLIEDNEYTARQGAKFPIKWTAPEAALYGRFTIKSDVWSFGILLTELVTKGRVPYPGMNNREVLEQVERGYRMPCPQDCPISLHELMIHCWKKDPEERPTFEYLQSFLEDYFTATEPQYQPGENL
468 kinases including some pathogenic mutants (Homo sapiens, UniProt Q9H093), sequence (Q9H093 whole entry, change not shown): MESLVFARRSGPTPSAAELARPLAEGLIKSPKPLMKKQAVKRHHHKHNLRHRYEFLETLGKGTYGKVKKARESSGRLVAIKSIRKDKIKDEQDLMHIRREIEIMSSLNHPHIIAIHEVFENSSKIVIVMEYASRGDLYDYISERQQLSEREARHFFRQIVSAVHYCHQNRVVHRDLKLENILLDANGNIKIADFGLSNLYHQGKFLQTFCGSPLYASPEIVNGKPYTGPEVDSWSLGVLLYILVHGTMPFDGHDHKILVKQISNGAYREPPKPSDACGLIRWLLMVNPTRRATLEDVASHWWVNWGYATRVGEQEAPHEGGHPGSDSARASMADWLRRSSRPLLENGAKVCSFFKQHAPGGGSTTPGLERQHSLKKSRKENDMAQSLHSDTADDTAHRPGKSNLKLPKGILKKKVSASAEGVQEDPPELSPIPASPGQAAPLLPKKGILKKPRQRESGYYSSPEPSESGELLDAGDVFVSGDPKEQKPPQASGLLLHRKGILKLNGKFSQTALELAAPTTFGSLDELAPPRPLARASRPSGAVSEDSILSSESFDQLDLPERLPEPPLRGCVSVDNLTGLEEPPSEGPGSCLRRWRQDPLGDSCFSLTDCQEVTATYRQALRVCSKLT
468 kinases including some pathogenic mutants (Homo sapiens, UniProt P10721, T670I/V559D), sequence (P10721 26-976 V559D/T670I): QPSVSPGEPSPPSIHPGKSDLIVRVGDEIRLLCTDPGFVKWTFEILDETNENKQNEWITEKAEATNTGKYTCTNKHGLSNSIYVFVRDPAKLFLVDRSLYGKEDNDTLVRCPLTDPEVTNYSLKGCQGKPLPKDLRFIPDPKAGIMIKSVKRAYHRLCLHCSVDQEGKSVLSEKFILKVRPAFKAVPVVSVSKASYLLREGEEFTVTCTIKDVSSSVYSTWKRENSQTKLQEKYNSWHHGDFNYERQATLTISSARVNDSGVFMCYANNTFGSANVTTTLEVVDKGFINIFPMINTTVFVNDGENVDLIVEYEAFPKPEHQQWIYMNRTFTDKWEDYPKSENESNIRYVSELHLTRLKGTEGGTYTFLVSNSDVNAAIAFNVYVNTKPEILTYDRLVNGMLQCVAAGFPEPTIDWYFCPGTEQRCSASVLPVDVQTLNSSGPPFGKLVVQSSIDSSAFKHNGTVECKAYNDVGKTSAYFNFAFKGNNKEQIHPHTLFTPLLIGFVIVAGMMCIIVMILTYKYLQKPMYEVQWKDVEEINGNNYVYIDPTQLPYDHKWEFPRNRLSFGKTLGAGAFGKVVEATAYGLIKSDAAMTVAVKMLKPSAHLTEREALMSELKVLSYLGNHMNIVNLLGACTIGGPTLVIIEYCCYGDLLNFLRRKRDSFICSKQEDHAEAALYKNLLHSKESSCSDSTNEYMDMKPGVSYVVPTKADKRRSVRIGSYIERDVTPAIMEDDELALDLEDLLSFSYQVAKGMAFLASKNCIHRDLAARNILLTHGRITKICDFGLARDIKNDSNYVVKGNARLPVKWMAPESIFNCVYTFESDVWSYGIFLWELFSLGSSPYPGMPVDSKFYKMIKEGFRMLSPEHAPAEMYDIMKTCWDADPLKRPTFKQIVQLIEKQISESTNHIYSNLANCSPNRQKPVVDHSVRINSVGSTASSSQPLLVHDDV
468 kinases including some pathogenic mutants (Homo sapiens, UniProt P42336, E545K), sequence (P42336 whole entry E545K): as the sequence (P42336 whole entry E545A) above, with A545K counted along it
468 kinases including some pathogenic mutants (Homo sapiens, UniProt Q6ZWH5), sequence (Q6ZWH5 whole entry, change not shown): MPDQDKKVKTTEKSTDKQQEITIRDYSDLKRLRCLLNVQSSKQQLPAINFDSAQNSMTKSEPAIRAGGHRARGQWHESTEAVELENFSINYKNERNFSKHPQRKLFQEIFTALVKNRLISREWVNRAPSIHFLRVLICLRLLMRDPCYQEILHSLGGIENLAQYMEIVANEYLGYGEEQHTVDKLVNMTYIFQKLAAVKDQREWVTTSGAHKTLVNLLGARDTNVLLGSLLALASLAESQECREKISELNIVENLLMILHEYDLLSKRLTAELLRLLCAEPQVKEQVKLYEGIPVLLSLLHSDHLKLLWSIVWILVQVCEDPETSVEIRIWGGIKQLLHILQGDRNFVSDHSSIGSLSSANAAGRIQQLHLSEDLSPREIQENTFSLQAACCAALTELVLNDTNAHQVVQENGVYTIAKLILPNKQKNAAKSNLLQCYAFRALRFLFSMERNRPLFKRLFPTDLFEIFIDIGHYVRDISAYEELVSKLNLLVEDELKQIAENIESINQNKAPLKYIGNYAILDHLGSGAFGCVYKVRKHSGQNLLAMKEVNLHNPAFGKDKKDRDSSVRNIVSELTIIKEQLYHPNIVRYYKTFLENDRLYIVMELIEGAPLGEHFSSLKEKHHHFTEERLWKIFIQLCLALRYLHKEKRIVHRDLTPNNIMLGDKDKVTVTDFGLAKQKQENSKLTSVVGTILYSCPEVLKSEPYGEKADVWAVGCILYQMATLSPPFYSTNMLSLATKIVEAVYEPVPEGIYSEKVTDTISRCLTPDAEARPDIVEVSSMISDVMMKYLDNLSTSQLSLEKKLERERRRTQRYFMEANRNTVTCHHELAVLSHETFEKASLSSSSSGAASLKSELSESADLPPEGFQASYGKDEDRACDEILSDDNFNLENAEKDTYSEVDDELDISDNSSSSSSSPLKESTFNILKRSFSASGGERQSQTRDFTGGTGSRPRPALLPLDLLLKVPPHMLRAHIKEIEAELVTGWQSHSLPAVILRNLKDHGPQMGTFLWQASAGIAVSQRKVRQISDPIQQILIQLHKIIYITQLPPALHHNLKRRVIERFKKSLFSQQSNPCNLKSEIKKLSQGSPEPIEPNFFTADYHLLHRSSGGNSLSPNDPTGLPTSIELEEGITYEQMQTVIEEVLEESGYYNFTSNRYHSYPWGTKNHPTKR

Structure (SMILES): CN1C(=O)[C@@H](N2CCc3c(nn(Cc4ccccc4)c3C(N)=O)C2=O)COc2cc(Cl)ccc21 [Compound 10, (S)-2-benzyl-6-(8-chloro-5-methyl-4-oxo-2,3,4,5-tetrahydrobenzo[b][1,4]oxazepin-3-yl)-7-oxo-4,5,6,7-tetrahydro-2H-pyrazolo[3,4-c]pyridine-3-carboxamide]
- remaining activity at 0.1 µM [1]: 94%
- remaining activity at 0.1 µM [2]: 78%
- remaining activity at 0.1 µM [3]: 87%
- remaining activity at 0.1 µM [4]: 90%
- remaining activity at 0.1 µM [5]: 83%
- remaining activity at 0.1 µM [6]: 89%
- remaining activity at 1 µM [7]: 100%
- remaining activity at 1 µM [8]: 100%
- remaining activity at 0.1 µM [9]: 66%
- remaining activity at 0.1 µM [10]: 89%
- remaining activity at 0.1 µM [11]: 84%
- remaining activity at 0.1 µM [12]: 79%
- remaining activity at 0.1 µM [13]: 75%
- remaining activity at 0.1 µM [14]: 88%
- remaining activity at 1 µM [15]: 100%
- remaining activity at 0.1 µM [16]: 100%
- remaining activity at 1 µM [17]: 100%
- remaining activity at 1 µM [18]: 100%
- remaining activity at 0.1 µM [19]: 89%
- remaining activity at 0.1 µM [20]: 100%
- remaining activity at 1 µM [21]: 100%
- remaining activity at 0.1 µM [22]: 71%
- remaining activity at 0.1 µM [23]: 82%
- remaining activity at 0.1 µM [24]: 88%
- remaining activity at 1 µM [25]: 100%
- remaining activity at 0.1 µM [26]: 100%
- remaining activity at 1 µM [27]: 100%
- remaining activity at 1 µM [28]: 100%
- remaining activity at 0.1 µM [29]: 100%
- remaining activity at 0.1 µM [30]: 89%
